Target: T1, human RXFP1 (Homo sapiens, UniProt Q9HBX9)
T1 construct: expressed in transfected cells
T1 sequence (Q9HBX9 1-757): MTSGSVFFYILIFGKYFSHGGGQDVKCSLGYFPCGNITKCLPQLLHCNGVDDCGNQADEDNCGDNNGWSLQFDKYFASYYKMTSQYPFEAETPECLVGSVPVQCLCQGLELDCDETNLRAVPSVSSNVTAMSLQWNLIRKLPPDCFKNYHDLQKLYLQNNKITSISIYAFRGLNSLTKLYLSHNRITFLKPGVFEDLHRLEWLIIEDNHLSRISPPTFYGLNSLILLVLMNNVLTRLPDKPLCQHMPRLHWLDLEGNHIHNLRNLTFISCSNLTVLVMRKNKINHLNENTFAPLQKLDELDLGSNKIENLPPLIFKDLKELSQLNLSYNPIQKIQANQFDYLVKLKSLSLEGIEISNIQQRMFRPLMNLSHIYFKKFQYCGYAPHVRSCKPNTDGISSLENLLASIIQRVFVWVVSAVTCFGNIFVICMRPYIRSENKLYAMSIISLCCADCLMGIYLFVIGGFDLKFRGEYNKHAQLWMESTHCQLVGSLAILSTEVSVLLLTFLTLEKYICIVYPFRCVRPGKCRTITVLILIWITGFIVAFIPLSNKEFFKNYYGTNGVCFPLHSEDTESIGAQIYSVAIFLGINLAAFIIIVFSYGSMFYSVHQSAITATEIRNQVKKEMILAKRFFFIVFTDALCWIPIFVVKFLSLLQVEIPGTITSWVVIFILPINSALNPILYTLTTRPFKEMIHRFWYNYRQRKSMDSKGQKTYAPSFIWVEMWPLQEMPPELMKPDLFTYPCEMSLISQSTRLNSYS
Assay: hRXFP1 HEK293 cAMP assay (HTRF)
Assay type: cell-based
Settings: HEK293 cells stably expressing human RXFP1
Description: RXFP1 Cyclic Adenosine Monophosphate (cAMP) Assays. Human embryonic kidney cells 293 (HEK293) cells and HEK293 cells stably expressing human RXFP1, were cultured in MEM medium supplemented with 10% qualified FBS, and 300 μg/ml hygromycin (Life Technologies). Cells were dissociated and suspended in assay buffer. The assay buffer was HBSS buffer (with calcium and magnesium) containing 20 mM HEPES, 0.05% BSA, and 0.5 mM IBMX. Cells (3000 cells per well, except 1500 cell per well for HEK293 cells stably expressing human RXFP1) were added to 384-well Proxiplates (Perkin-Elmer). Cells were immediately treated with test compounds in DMSO (2% final) at final concentrations in the range of 0.010 nM to 50 μM. Cells were incubated for 30 min at room temperature. The level of intracellular cAMP was determined using the HTRF HiRange cAMP assay reagent kit (Cisbio) according to manufacturer's instructions. Solutions of cryptate conjugated anti-cAMP and d2 fluorophore-labelled cAMP were made in a supplied lysis buffer separately. Upon completion of the reaction, the cells were lysed with equal volume of the d2-cAMP solution and anti-cAMP solution. After a 1 h room temperature incubation, time-resolved fluorescence intensity was measured using the Envision (Perkin-Elmer) at 400 nm excitation and dual emission at 590 nm and 665 nm. A calibration curve was constructed with an external cAMP standard at concentrations ranging from 2.7 μM to 0.1 μM by plotting the fluorescent intensity ratio from 665 nm emission to the intensity from the 590 nm emission against cAMP concentrations. The potency and activity of a compound to […] cAMP production was then determined by fitting to a 4-parametric logistic equation from a plot of cAMP level versus compound concentrations.
The examples disclosed below were tested in the human RXFP1 (hRXFP1) HEK293 cAMP assay described above and found to have agonist activity. Tables 1-3, lists EC50 values in the hRXFP1 HEK293 cAMP assay measured for the examples.

[1] = phenylcyclohexyl (tetraline) examples

EC50 [1] [nM] | Structure (SMILES) | further results
1100 | COc1ccc(-c2cc(C(=O)O)ccc2F)cc1C(=O)Nc1cc2c(cc1C(=O)Nc1ccc(F)c(C(F)(F)F)c1)CCCC2=O [Example 18, 6-fluoro-3′-((3-((4-fluoro-3-(trifluoromethyl)phenyl)carbamoyl)-8-oxo-5,6,7,8-tetrahydronaphthalen-2-yl)carbamoyl)-4′-methoxy-[1,1′-biphenyl]-3-carboxylic acid] | –
4200 | COc1ccc(-c2cc(C(=O)NCC3CCC3)ccc2F)cc1C(=O)Nc1cc2c(cc1C(=O)Nc1ccc(F)c(C(F)(F)F)c1)CCCC2 [Example 8, N3′-(cyclobutyl-methyl)-6′-fluoro-N3-(3-((4-fluoro-3-(trifluoromethyl)phenyl)carbamoyl)-5,6,7,8-tetrahydro-naphthalen-2-yl)-4-methoxy-[1,1′-biphenyl]-3,3′-dicarboxamide] | –
390 | COc1ccc(-c2cc(C(=O)O)ccc2F)cc1C(=O)Nc1cc2c(cc1C(=O)Nc1ccc(F)c(C(F)(F)F)c1)CCCC2 [Example 1, 6-fluoro-3′-((3-((4-fluoro-3-(trifluoromethyl)phenyl)carbamoyl)-5,6,7,8-tetrahydronaphthalen-2-yl)carbamoyl)-4′-methoxy-[1,1′-biphenyl]-3-carboxylic acid] | –

Further lines, the compound ahead of its results:

Structure (SMILES) | EC50 [1] [nM] | further results
COc1ccc(-c2cc(C(=O)O)ccc2F)cc1C(=O)Nc1cc2c(cc1C(=O)Nc1ccc(F)c(C(F)(F)F)c1)CC2 [Example 21] | – | EC50 (phenylcyclobutane examples): 2400 nM
COc1ccc(-c2cc(C(NC(=O)C3CCOCC3)C(=O)O)ccc2F)cc1C(=O)Nc1cc2c(cc1C(=O)Nc1ccc(F)c(C(F)(F)F)c1)CC2 (stereo not shown) [Example 22, 2-(6-fluoro-3′-((4-((4-fluoro-3-(trifluoromethyl)phenyl)carbamoyl)bicyclo[4.2.0]octa-1,3,5-trien-3-yl)carbamoyl)-4′-methoxy-[1,1′-biphenyl]-3-yl)-2-(tetrahydro-2H-pyran-4-carboxamido)acetic acid] | – | EC50 (phenylcyclobutane examples): 8 nM
COc1ccc(C2=NOC3CC(CO)CC23)cc1C(=O)Nc1cc2c(cc1C(=O)Nc1ccc(F)c(C(F)(F)F)c1)CCCC2 (stereo not shown) [Example 12, N-(4-fluoro-3-(trifluoromethyl)phenyl)-3-(5-(5-(hydroxymethyl)-3a,5,6,6a-tetrahydro-4H-cyclopenta[d]-isoxazol-3-yl)-2-methoxybenzamido)-5,6,7,8-tetrahydronaphthalene-2-carboxamide] | 290 | –
COc1ccc(-c2cc(C(=O)O)ccc2F)cc1C(=O)Nc1cc2c(cc1C(=O)Nc1ccc(F)c(C(F)(F)F)c1)CCC2O (racemic) [Example 29, 6-fluoro-3′-((6-((4-fluoro-3-(trifluoromethyl)phenyl)carbamoyl)-3-hydroxy-2,3-dihydro-1H-inden-5-yl)carbamoyl)-4′-methoxy-[1,1′-biphenyl]-3-carboxylic acid] | – | EC50 (phenylcyclopentyl examples): 2700 nM
COc1ccc(-c2cc([C@H](OC(=O)Nc3ccccc3)C(F)(F)F)ccc2F)cc1C(=O)Nc1cc2c(cc1C(=O)Nc1ccc(F)c(C(F)(F)F)c1)CCCC2 [Example 5, (S)-2,2,2-trifluoro-1-(6-fluoro-3′-((3-((4-fluoro-3-(trifluoromethyl)phenyl)carbamoyl)-5,6,7,8-tetrahydronaphthalen-2-yl)carbamoyl)-4′-methoxy-[1,1′-biphenyl]-3-yl)ethyl phenylcarbamate] | 33 | –
COc1ccc(C2=NOC3CC(CO)CC23)cc1C(=O)Nc1cc2c(cc1C(=O)Nc1ccc(F)c(C(F)(F)F)c1)CCC2=O (single isomer, unassigned) [Example 27, N-(4-fluoro-3-(trifluoromethyl)phenyl)-6-(5-(5-(hydroxymethyl)-3a,5,6,6a-tetrahydro-4H-cyclopenta[d]isoxazol-3-yl)-2-methoxybenzamido)-1-oxo-2,3-dihydro-1H-indene-5-carboxamide] | – | EC50 (phenylcyclopentyl examples): 34 nM
COc1ccc(-c2noc(CCO)c2CCO)cc1C(=O)Nc1cc2c(cc1C(=O)Nc1ccc(F)c(C(F)(F)F)c1)CCCC2 [Example 16, 3-(5-(4,5-bis(2-hydroxyethyl)isoxazol-3-yl)-2-methoxybenzamido)-N-(4-fluoro-3-(trifluoromethyl)phenyl)-5,6,7,8-tetrahydronaphthalene-2-carboxamide] | 5000 | –
